Here are results for 14 compounds from ChEMBL document CHEMBL1649345, “Strychnan and secoangustilobine A type alkaloids from Alstonia spatulata. Revision of the C-20 configuration of scholaricine” (J Nat Prod, 2010).

As usually defined, the IC50 is the concentration that gives 50% inhibition.

Assay type in all cases: functional, cell-based
A short description of assay [1]: Cytotoxicity against human vincristine-sensitive KB/S cells.
A short description of assay [2]: Cytotoxicity against human vincristine-resistant KB/VJ300 cells.
Assay [3] in a line: Cytotoxicity against human vincristine-resistant KB/VJ300 cells in presence of vincristine.

Molecules are shown by their SMILES. Converted amounts (≈) assume the structure as drawn.

For `COC(=O)C1=C2Nc3ccccc3[C@@]23CCN2C[C@H]([C@@H](C)O)[C@@H]1C[C@H]23`, the results for the IC50 in assay [1], in assay [2] and in assay [3] were > 25 µg/mL, > 25 µg/mL and 5.12 µg/mL, respectively.

Consider `COC(=O)C1=C2Nc3ccccc3[C@@]23CCN2C[C@H]([C@H](C)O)[C@@H]1C[C@H]23`, for which the half-maximal inhibitory concentration (IC50) in assay [1] is > 25 µg/mL; in assay [2], > 25 µg/mL; in assay [3], 8.35 µg/mL.

As for `COC(=O)C1=C2Nc3c(OC)cccc3[C@@]23CCN2C[C@H]([C@@H](C)O)[C@@H]1C[C@H]23`, the 50% inhibitory concentration (IC50) in assay [1] was > 25 µg/mL; in assay [2] it was > 25 µg/mL; in assay [3] it was 10.6 µg/mL.

For the compound `C=C[C@@]12CNCC[C@@H]1[C@](C(=O)OC)(c1cc3ccccc3[nH]1)CO2`, the IC50 in assay [1], in assay [2] and in assay [3] was > 25 µg/mL each time.

On to `C/C=C1/CN2CC[C@]34C(=C(C(=O)OC)[C@H]1C[C@H]23)Nc1ccccc14` [AKUAMMICINE], for which the results for the IC50 in assay [1], in assay [2] and in assay [3] were > 25 µg/mL, > 25 µg/mL and 12.3 µg/mL, respectively.

Regarding `C=C[C@@]12CN(C(=O)OCC)CC[C@@H]1[C@](C(=O)OC)(c1cc3ccccc3[nH]1)CO2` [ALSTOLOBINE A], the IC50 was > 25 µg/mL in assay [1], > 25 µg/mL in assay [2] and 3.51 µg/mL in assay [3].

Consider `CCOC(=O)O[C@H](C)[C@H]1CN2CC[C@]34C(=C(C(=O)OC)[C@H]1C[C@H]23)Nc1ccccc14` [ALSTOLUCINE A], for which the concentration for half-maximal inhibition (IC50) in assay [1] is > 25 µg/mL; in assay [2], > 25 µg/mL; in assay [3], 0.59 µg/mL.

As for `COC(=O)C1=C2Nc3ccccc3[C@@]23CCN2C[C@@H](C(C)=O)[C@@H]1C[C@H]23` [ALSTOLUCINE B], the figures for the 50% inhibitory concentration (IC50) in assay [1], in assay [2] and in assay [3] were > 25 µg/mL, > 25 µg/mL and 0.64 µg/mL, respectively.

Consider `COC(=O)C1=C2Nc3ccccc3[C@@]23CC[N+]2([O-])C[C@@H](C(C)=O)[C@@H]1C[C@@H]32` (some centres not stated) [ALSTOLUCINE C], for which the half-maximal inhibitory concentration (IC50) in assay [1], in assay [2] and in assay [3] was > 25 µg/mL each time.

Take `COC(=O)C1=C2Nc3c(O)cccc3[C@@]23CCN2C[C@@H](C(C)=O)[C@@H]1C[C@H]23` [ALSTOLUCINE D]: the results for the half-inhibitory concentration (IC50) in assay [1], in assay [2] and in assay [3] were > 25 µg/mL, > 25 µg/mL and 10.3 µg/mL, respectively.

Turning to `COC(=O)C1=C2Nc3c(O)cccc3[C@@]23CCN2C[C@H](C(C)=O)[C@@H]1C[C@H]23` [ALSTOLUCINE E], the half-inhibitory concentration (IC50) is > 25 µg/mL in assay [1], > 25 µg/mL in assay [2] and 19.2 µg/mL in assay [3].

Consider `COC(=O)C1=C2Nc3ccccc3[C@@]23CCN2C[C@H](C(C)=O)[C@@H]1C[C@H]23` [ALSTOLUCINE F], for which the IC50 was > 25 µg/mL in assay [1], > 25 µg/mL in assay [2] and 2.61 µg/mL in assay [3].

On to `COC(=O)C1=C2Nc3c(O)cccc3[C@@]23CCN2C[C@@H]([C@H](C)O)[C@@H]1C[C@H]23` [SCHOLARICINE], for which the concentration for half-maximal inhibition (IC50) in assay [1] is > 25 µg/mL; in assay [2], 13.3 µg/mL (≈ 37.5 µM); in assay [3], 1.15 µg/mL.

Consider `C/C=C1/CN2CC[C@]34C(=C(C(=O)O)[C@H]1C[C@H]23)Nc1ccccc14` [VINERVINE], for which the IC50 in assay [1] is > 25 µg/mL; in assay [2], > 25 µg/mL; in assay [3], 12.1 µg/mL.
